Source: patent US4988687A, “Cephalosporin derivatives, and antibacterial agents” (priority 1986, dated 1991)

Columns and labels:
[1] = system: C. freundii GN346; experiment: agar plate dilution method, MIC against C. freundii GN346; assay type: cell-based; conditions: Citrobacter freundii; C. freundii GN346 (lactamase-producing strain); 10^6 CFU/ml, 37° C., 16 hours; read-out: Minimum Inhibitory Concentration (MIC)
Summary of the method: (§1)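 Overnight Mueller Hinton broth cultures were loop-inoculated onto Mueller Hinton agar containing serial antibiotic concentrations (inoculum 10^6 CFU/ml). Plates were incubated at 37° C. for 16 hours, and the MIC (μg/ml) was recorded.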

[2] = system: E. cloacae Nek 39; experiment: agar plate dilution method, MIC against E. cloacae Nek 39; assay type: cell-based; conditions: Enterobacter cloacae, NEK39; E. cloacae Nek 39 (lactamase-producing strain); 10^6 CFU/ml, 37° C., 16 hours; read-out: Minimum Inhibitory Concentration (MIC)
Summary of the method: as §1

[3] = system: K. oxytoca GN10650; experiment: agar plate dilution method, MIC against K. oxytoca GN10650; assay type: cell-based; conditions: Klebsiella oxytoca, GN10650, 16 h, read-out: Minimum Inhibitory Concentration (MIC)
Summary of the method: as §1

[4] = system: S. aureus BB5703; experiment: agar plate dilution method, MIC against S. aureus BB5703; assay type: cell-based; conditions: Staphylococcus aureus, BB5703, 16 h, read-out: Minimum Inhibitory Concentration (MIC)
Summary of the method: as §1

[5] = system: sensitive and resistant Gram-positive bacteria and Gram-negative bacteria particularly glucose non-fermentative Gram-negative rods; experiment: antibacterial activity and spectrum (in words); assay type: cell-based; conditions: in vitro
Method: The in vitro antibacterial activities of the compounds of the present invention against various microorganisms, were measured by the following agar plate dilution method. One platinum loopfull of each test microorganism incubated overnight in Mueller Hinton broth, was inoculated to Mueller Hinton agar (inoculum size: 10^6 CFU/ml) Such culture media containing various antibiotics in various concentrations were prepared After incubation at 37° C. for 16 hours, the minimum inhibitory concentrations (MIC: μg/ml) were measured. As comparative compounds, cefotaxime, oeftazidime and the compounds disclosed in Example 2 of Japanese Unexamined Patent Publication No. 215690/1985 e.g. sodium 7-[2-(2-aminothiazol-4-yl)-2-ethoxyiminoacetamido]-3-(1-carboxylatemethylpyridinio-4-yl)thiomethyl-3-cephem-4-carboxylate (hereinafter referred to simply as "Reference Example A") were employed.

[6] = system: Ps. aeruginosa AK 109; experiment: agar plate dilution method, MIC against Ps. aeruginosa AK 109; assay type: cell-based; conditions: Pseudomonas aeruginosa, AK109; Ps. aeruginosa AK 109; 10^6 CFU/ml, 37° C., 16 hours; read-out: Minimum Inhibitory Concentration (MIC)
Summary of the method: as §1

[7] = system: E. cloacae 963; experiment: agar plate dilution method, MIC against E. cloacae 963; assay type: cell-based; conditions: Enterobacter cloacae; E. cloacae 963; 10^6 CFU/ml, 37° C., 16 hours; read-out: Minimum Inhibitory Concentration (MIC)
Summary of the method: as §1

[8] = system: M. luteus ATCC9341; experiment: agar plate dilution method, MIC against M. luteus ATCC9341; assay type: cell-based; conditions: Micrococcus luteus, ATCC9341, 16 h, read-out: Minimum Inhibitory Concentration (MIC)
Summary of the method: as §1

[9] = system: S. aureus 209P NIHJ-JC1; experiment: agar plate dilution method, MIC against S. aureus 209P NIHJ-JC1; assay type: cell-based; conditions: Staphylococcus aureus, 16 h, read-out: Minimum Inhibitory Concentration (MIC)
Summary of the method: as §1

[10] = system: E. coli CSH(RE45); experiment: agar plate dilution method, MIC against E. coli CSH(RE45); assay type: cell-based; conditions: Escherichia coli, 16 h, read-out: Minimum Inhibitory Concentration (MIC)
Summary of the method: (§2)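 MIC (μg/ml) read after 16 h at 37° C. on Mueller Hinton agar with graded compound levels; inoculum 10^6 CFU/ml from overnight Mueller Hinton broth culture, one loopful per strain.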

[11] = system: Ps. maltophilia GN 12873; experiment: agar plate dilution method, MIC against Ps. maltophilia GN 12873; assay type: cell-based, Pseudomonas maltophilia; conditions: Stenotrophomonas maltophilia, GN12873; Ps. maltophilia GN 12873 (lactamase-producing strain); 10^6 CFU/ml, 37° C., 16 hours; read-out: Minimum Inhibitory Concentration (MIC)
Summary of the method: as §1

[12] = system: S. epidermidis IAM12012; experiment: agar plate dilution method, MIC against S. epidermidis IAM12012; assay type: cell-based; conditions: Staphylococcus epidermidis, IAM12012, 16 h, read-out: Minimum Inhibitory Concentration (MIC)
Summary of the method: as §1

[13] = system: M. morganii GN5407; experiment: agar plate dilution method, MIC against M. morganii GN5407; assay type: cell-based; conditions: Morganella morganii; M. morganii GN5407 (lactamase-producing strain); 10^6 CFU/ml, 37° C., 16 hours; read-out: Minimum Inhibitory Concentration (MIC)
Summary of the method: as §1

[14] = system: E. coli CSH2 (RK1); experiment: agar plate dilution method, MIC against E. coli CSH2 (RK1); assay type: cell-based; conditions: Escherichia coli, 16 h, read-out: Minimum Inhibitory Concentration (MIC)
Summary of the method: as §2

[15] = system: Ps. aeruginosa IFO3445; experiment: agar plate dilution method, MIC against Ps. aeruginosa IFO3445; assay type: cell-based; conditions: Pseudomonas aeruginosa; Ps. aeruginosa IFO3445; 10^6 CFU/ml, 37° C., 16 hours; read-out: Minimum Inhibitory Concentration (MIC)
Summary of the method: as §1

[16] = system: K. pneumoniae PCI-602; experiment: agar plate dilution method, MIC against K. pneumoniae PCI-602; assay type: cell-based; conditions: Klebsiella pneumoniae, PCI602, 16 h, read-out: Minimum Inhibitory Concentration (MIC)
Summary of the method: as §1

[17] = system: P. vulgaris No. 33; experiment: agar plate dilution method, MIC against P. vulgaris No. 33; assay type: cell-based; conditions: Proteus vulgaris; P. vulgaris No. 33 (lactamase-producing strain); 10^6 CFU/ml, 37° C., 16 hours; read-out: Minimum Inhibitory Concentration (MIC)
Summary of the method: as §1

[18] = system: P. vulgaris HX-19; experiment: agar plate dilution method, MIC against P. vulgaris HX-19; assay type: cell-based; conditions: Proteus vulgaris, HX19; P. vulgaris HX-19; 10^6 CFU/ml, 37° C., 16 hours; read-out: Minimum Inhibitory Concentration (MIC)
Summary of the method: as §1

[19] = system: E. coli GN5482; experiment: agar plate dilution method, MIC against E. coli GN5482; assay type: cell-based; conditions: Escherichia coli; E. coli GN5482 (lactamase-producing strain); 10^6 CFU/ml, 37° C., 16 hours; read-out: Minimum Inhibitory Concentration (MIC)
Summary of the method: as §1

[20] = system: K. pneumoniae No. 42; experiment: agar plate dilution method, MIC against K. pneumoniae No. 42; assay type: cell-based; conditions: Klebsiella pneumoniae, NO.42, 16 h, read-out: Minimum Inhibitory Concentration (MIC)
Summary of the method: as §1

[21] = system: E. coli NIHJ JC2; experiment: agar plate dilution method, MIC against E. coli NIHJ JC2; assay type: cell-based; conditions: Escherichia coli, NIHJJC2; E. coli NIHJ JC2; 10^6 CFU/ml, 37° C., 16 hours; read-out: Minimum Inhibitory Concentration (MIC)
Summary of the method: as §1

[22] = system: Ps. aeruginosa AKR17; experiment: agar plate dilution method, MIC against Ps. aeruginosa AKR17; assay type: cell-based; conditions: Pseudomonas aeruginosa, AKR17, 16 h, read-out: Minimum Inhibitory Concentration (MIC)
Summary of the method: as §1

[23] = system: C. freundii GN346/16; experiment: agar plate dilution method, MIC against C. freundii GN346/16; assay type: cell-based; conditions: Citrobacter freundii; C. freundii GN346/16; 10^6 CFU/ml, 37° C., 16 hours; read-out: Minimum Inhibitory Concentration (MIC)
Summary of the method: as §1

[24] = system: S. marcescens IAM 1184; experiment: agar plate dilution method, MIC against S. marcescens IAM 1184; assay type: cell-based; conditions: Serratia marcescens, IAM1184; S. marcescens IAM 1184; 10^6 CFU/ml, 37° C., 16 hours; read-out: Minimum Inhibitory Concentration (MIC)
Summary of the method: as §1

[25] = system: A. calcoaceticus No. 4; experiment: agar plate dilution method, MIC against A. calcoaceticus No. 4; assay type: cell-based; conditions: Acinetobacter calcoaceticus; A. calcoaceticus No. 4; 10^6 CFU/ml, 37° C., 16 hours; read-out: Minimum Inhibitory Concentration (MIC)
Summary of the method: as §1

[26] = system: Ps. cepacia 23; experiment: agar plate dilution method, MIC against Ps. cepacia 23; assay type: cell-based, Pseudomonas cepacia; conditions: Burkholderia cepacia, 23, 16 h, read-out: Minimum Inhibitory Concentration (MIC)
Summary of the method: as §1

[27] = system: S. aureus JS1; experiment: agar plate dilution method, MIC against S. aureus JS1; assay type: cell-based; conditions: Staphylococcus aureus; S. aureus JS1 (methicilline resistant; lactamase-producing strain); 10^6 CFU/ml, 37° C., 16 hours; read-out: Minimum Inhibitory Concentration (MIC)
Summary of the method: as §1

[28] = system: S. marcescens No. 16-2; experiment: agar plate dilution method, MIC against S. marcescens No. 16-2; assay type: cell-based; conditions: Serratia marcescens, NO.162, 16 h, read-out: Minimum Inhibitory Concentration (MIC)
Summary of the method: as §1

SMILES: CC(=O)Oc1ccc(C(O/N=C(\C(=O)NC2C(=O)N3C(C(=O)[O-])=C(CSc4cc[n+](CC(=O)O)cc4)CSC23)c2csc(N)n2)C(=O)O)cc1OC(C)=O (stereo not drawn) [Example 6, disodium 7-[2-(2-aminothiazol-4-yl)-2-(α-carboxylate-3,4-diacetoxybenzyloxyimino)acetamido]-3-(1-carboxylatemethylpyridinio-4-yl)thiomethyl-3-cephem-4-carboxylate (syn-isomer)]
- MIC [1]: 25 µg/mL
- MIC [2]: 0.78 µg/mL
- MIC [3]: 0.2 µg/mL
- MIC [4]: 6.25 µg/mL
- antibacterial activities and antibacterial spectrum (in words) [5]: excellent antibacterial activities and a broad antibacterial spectrum
- MIC [6]: 0.78 µg/mL
- MIC [7]: 0.39 µg/mL
- MIC [8]: 3.12 µg/mL
- MIC [9]: 1.56 µg/mL
- MIC [10]: 0.05 µg/mL
- MIC [11]: > 100 µg/mL
- MIC [12]: 3.12 µg/mL
- MIC [13]: 0.2 µg/mL
- MIC [14]: 0.05 µg/mL
- MIC [15]: 0.78 µg/mL
- MIC [16]: < 0.006 µg/mL
- MIC [17]: 0.1 µg/mL
- MIC [18]: 0.1 µg/mL
- MIC [19]: 0.39 µg/mL
- MIC [20]: 0.1 µg/mL
- MIC [21]: 0.2 µg/mL
- MIC [22]: 1.56 µg/mL
- MIC [23]: 0.39 µg/mL
- MIC [24]: 0.2 µg/mL
- MIC [25]: 0.39 µg/mL
- MIC [26]: 0.025 µg/mL
- MIC [27]: 25 µg/mL
- MIC [28]: 1.56 µg/mL
